In patent US20230346678A1, “TOPICAL COMPOSITIONS CONTAINING VITAMIN C” (priority 2022, published 2023):

Test: Oxygen radical absorbance capacity (ORAC) assay
Assay type: biochemical
Description: The combined anti-oxidant effects of combinations of ascorbic acid with various other known anti-oxidants was tested using the oxygen radical absorbance capacity (ORAC) assay according to the method described by Ou B, Hampsch Woodill M, Prior R. L. Development and validation of an improved oxygen radical absorbance capacity assay using fluorescein as the fluorescent probe. J Agric Food Chem. 2001, 49:4619 (using a slightly different ex/em wavelength readout and a narrower range of Trolox standards). This assay measures the ability of anti-oxidant “chain breakers” to inhibit the decline in disodium fluorescein (FL) fluorescence that is induced by the peroxyl radical generator, 2′,2′-Azobis (2-amidinopropane) dihydrochloride (AAPH). Distilled water was used as the negative control. Trolox (6-hydroxy-2,5,7,8-tetramethylchroman-2-carboxylic acid, a water-soluble analog of vitamin E sold by Hoffman-LaRoche having antioxidant properties) was used as the positive control.
The final ORAC values were calculated from the regression equation of net areas under the FL decay curve using a formula where Area Under the Curve (AUC)=1+(Point 1+Point 2+Point 3+ . . . +Point 15)/Point 1. The Trolox standards were then plotted as micromoles over AUC. The samples were solved using their AUC yielding the values in micromole (μmol) Trolox equivalent (TE) per ml. Applied BioSystems Cytofluor 4000 fluorometer & software was used for quantification. ORAC values of the test materials were expressed in μmoles TE/ml (TE=Trolox Equivalents).
All ingredients were stored at room temperature and then diluted with distilled water into aqueous stock solutions for testing. Further dilutions were made in distilled water within 24 h from testing.

[1] = second test run (second Table 3)

Compound | ORAC (first test run (first Table 3)) [μmoles TE/ml] | ORAC [1] [μmoles TE/ml] | ORAC (first test run, positive control) [µmol/g] | ORAC (second test run, positive control) [µmol/g]
O=C(O[C@@H]1Cc2c(O)cc(O)cc2O[C@@H]1c1cc(O)c(O)c(O)c1)c1cc(O)c(O)c(O)c1 [0.1% EGCG, epigallocatechin gallate] | 7 | – | – | –
CCOC1=C(O)C(=O)O[C@@H]1[C@@H](O)CO [0.5% Ethyl L-Ascorbic Acid, Ethyl L-Ascorbic Acid] | 13 | 7 | – | –
COc1cc(CCC(=O)CC(=O)CCc2ccc(O)c(OC)c2)ccc1O [0.5% Tetrahydrodiferuloyl-methane, Tetrahydrodiferuloyl-methane] | 4 | – | – | –
O=C1O[C@H]([C@@H](O)CO)C([O-])=C1OP(=O)([O-])[O-].[Na+].[Na+].[Na+] [0.5% sodium ascorbyl phosphate, sodium ascorbyl phosphate] | 10 | – | – | –
Cn1c(=O)c2c(ncn2C)n(C)c1=O [2% caffeine, caffeine] | 10 | 0 | – | –
O=C1O[C@H]([C@@H](O)CO)C(O)=C1O [10% ascorbic acid, ascorbic acid] | 751 | 838 | – | –
Cc1c(C)c2c(c(C)c1O)CCC(C)(C(=O)O)O2 (centres unmarked) [Trolox, 6-hydroxy-2,5,7,8-tetramethylchroman-2-carboxylic acid] | – | – | 3940 | 4368
